Measurements reported in ChEMBL document CHEMBL3351668, “Improvement of antibacterial activity of some sulfa drugs through linkage to certain phthalazin-1(2H)-one scaffolds” (2014).
≈ marks a conversion by molar mass, not a printed value.

Assays:
Escherichia coli [1] = assay: Antibacterial activity against Escherichia coli RCMB 010052 after 24 hrs by twofold serial dilution technique; type: functional; conditions: RCMB 010052, 24 h
Streptococcus pneumoniae [2] = assay: Antibacterial activity against Streptococcus pneumoniae RCMB 010010 at 100 umol/ml after 24 hrs by well diffusion assay; type: functional
Salmonella typhimurium [3] = assay: Antibacterial activity against Salmonella typhimurium RCMB 010072 after 24 hrs by twofold serial dilution technique; type: functional, Salmonella enterica subsp. enterica serovar Typhimurium; conditions: Salmonella enterica, RCMB 010072, 24 h
Enterococcus faecalis [4] = assay: Antibacterial activity against Enterococcus faecalis RCMB 010068 after 24 hrs by twofold serial dilution technique; type: functional; conditions: RCMB 010068, 24 h
Escherichia coli [5] = assay: Antibacterial activity against Escherichia coli RCMB 010052 at 100 umol/ml after 24 hrs by well diffusion assay; type: functional
Enterococcus faecalis [6] = assay: Antibacterial activity against Enterococcus faecalis RCMB 010068 at 100 umol/ml after 24 hrs by well diffusion assay; type: functional
Staphylococcus aureus [7] = assay: Antibacterial activity against Staphylococcus aureus RCMB 010028 at 100 umol/ml after 24 hrs by well diffusion assay; type: functional
Streptococcus pneumoniae [8] = assay: Antibacterial activity against Streptococcus pneumoniae RCMB 010010 after 24 hrs by twofold serial dilution technique; type: functional; conditions: RCMB 010010, 24 h
Salmonella typhimurium [9] = assay: Antibacterial activity against Salmonella typhimurium RCMB 010072 at 100 umol/ml after 24 hrs by well diffusion assay; type: functional, Salmonella enterica subsp. enterica serovar Typhimurium
Staphylococcus aureus [10] = assay: Antibacterial activity against Staphylococcus aureus RCMB 010028 after 24 hrs by twofold serial dilution technique; type: functional; conditions: RCMB 010028, 24 h

SMILES	MIC (Escherichia coli [1]) [mM]	diameter of the inhibition zone (DIZ) (Streptococcus pneumoniae [2]) [mm]	MIC (Salmonella typhimurium [3]) [mM]	MIC (Enterococcus faecalis [4]) [mM]	diameter of the inhibition zone (DIZ) (Escherichia coli [5]) [mm]	diameter of the inhibition zone (DIZ) (Enterococcus faecalis [6]) [mm]	diameter of the inhibition zone (DIZ) (Staphylococcus aureus [7]) [mm]	MIC (Streptococcus pneumoniae [8]) [mM]	diameter of the inhibition zone (DIZ) (Salmonella typhimurium [9]) [mm]	MIC (Staphylococcus aureus [10]) [mM]
O=C(Cn1nc(-c2ccccc2)c2ccccc2c1=O)Nc1ccc(S(=O)(=O)Nc2ncccn2)cc1	25 (≈ 12800 µg/mL)	22.3	6.25 (≈ 3200 µg/mL)	1.56 (≈ 800 µg/mL)	16.1	20.3	22.3	0.39 (≈ 200 µg/mL)	18.2	0.39 (≈ 200 µg/mL)
NS(=O)(=O)c1ccc(NC(=O)Cn2nc(-c3ccccc3)c3ccccc3c2=O)cc1	12.5 (≈ 5430 µg/mL)	16.8	12.5 (≈ 5430 µg/mL)	25 (≈ 10900 µg/mL)	16.8	15.9	19.4	12.5 (≈ 5430 µg/mL)	16.9	1.56 (≈ 678 µg/mL)
NS(=O)(=O)c1ccc(NC(=O)Cn2nc(Cc3ccccc3)c3ccccc3c2=O)cc1	6.25 (≈ 2800 µg/mL)	16.2	3.12 (≈ 1400 µg/mL)	50 (≈ 22400 µg/mL)	17.6	15.3	21	25 (≈ 11200 µg/mL)	18.24	0.78 (≈ 350 µg/mL)
COc1ccc(Cc2nn(CC(=O)Nc3ccc(S(N)(=O)=O)cc3)c(=O)c3ccccc23)cc1	3.12 (≈ 1490 µg/mL)	18.2	1.56 (≈ 747 µg/mL)	25 (≈ 12000 µg/mL)	19.6	16.2	22	6.25 (≈ 2990 µg/mL)	20	0.39 (≈ 187 µg/mL)
COc1ccc(Cc2nn(CCC(=O)Nc3ccc(S(N)(=O)=O)cc3)c(=O)c3ccccc23)cc1	3.12 (≈ 1540 µg/mL)	18.3	1.56 (≈ 768 µg/mL)	12.5 (≈ 6160 µg/mL)	19.9	16.7	22.3	6.25 (≈ 3080 µg/mL)	21	0.39 (≈ 192 µg/mL)
O=C(Cn1nc(-c2ccccc2)c2ccccc2c1=O)Nc1ccc(S(=O)(=O)Nc2nccs2)cc1	25 (≈ 12900 µg/mL)	20.3	0.78 (≈ 404 µg/mL)	25 (≈ 12900 µg/mL)	16.3	17	18.3	1.56 (≈ 807 µg/mL)	21	12.5 (≈ 6470 µg/mL)
O=C(Cn1nc(-c2ccc(Cl)cc2)c2ccccc2c1=O)Nc1ccc(S(=O)(=O)Nc2nccs2)cc1	0.39 (≈ 215 µg/mL)	20.2	0.78 (≈ 431 µg/mL)	25 (≈ 13800 µg/mL)	22.2	17.2	19.9	1.56 (≈ 861 µg/mL)	21.4	3.12 (≈ 1720 µg/mL)
COc1ccc(Cc2nn(CC(=O)Nc3ccc(S(=O)(=O)Nc4ncccn4)cc3)c(=O)c3ccccc23)cc1	25 (≈ 13900 µg/mL)	16.3	3.12 (≈ 1740 µg/mL)	50 (≈ 27800 µg/mL)	16.9	15.2	18.6	25 (≈ 13900 µg/mL)	19.3	6.25 (≈ 3480 µg/mL)
COc1ccc(Cc2nn(CCC(=O)Nc3ccc(S(=O)(=O)Nc4ncccn4)cc3)c(=O)c3ccccc23)cc1	50 (≈ 28500 µg/mL)	15.7	25 (≈ 14300 µg/mL)	25 (≈ 14300 µg/mL)	16.2	17.2	19.8	50 (≈ 28500 µg/mL)	17.4	3.12 (≈ 1780 µg/mL)
Nc1ccc(S(=O)(=O)Nc2ncccn2)cc1 [SULFADIAZINE]	100 (≈ 25000 µg/mL)	14.2	50 (≈ 12500 µg/mL)	100 (≈ 25000 µg/mL)	14.2	13.7	18.3	100 (≈ 25000 µg/mL)	15	6.25 (≈ 1560 µg/mL)
Nc1ccc(S(N)(=O)=O)cc1 [SULFANILAMIDE]	25 (≈ 4310 µg/mL)	15.8	100 (≈ 17200 µg/mL)	100 (≈ 17200 µg/mL)	15.8	14.2	16.8	25 (≈ 4310 µg/mL)	14.2	12.5 (≈ 2150 µg/mL)
Nc1ccc(S(=O)(=O)Nc2nccs2)cc1 [SULFATHIAZOLE]	100 (≈ 25500 µg/mL)	15.8	12.5 (≈ 3190 µg/mL)	50 (≈ 12800 µg/mL)	13.8	14.9	15	25 (≈ 6380 µg/mL)	17.2	50 (≈ 12800 µg/mL)
